Experimental data as given in ChEMBL document CHEMBL1153470, “Design, synthesis, and biological evaluation of 16-substituted 4-azasteroids as tissue-selective androgen receptor modulators (SARMs)” (J Med Chem, 2009).
Values after ≈ are worked out from the molar mass of the structure shown.

How the values were obtained:
[1] = Clearance in Beagle dog at 0.2 mg/kg, iv; assay type: ADME, organism-based, Canis lupus familiaris; parameters: dose 0.2 mg/kg, route intravenous; settings: in vivo
[2] = Half life in Beagle dog at 0.2 mg/kg, iv; assay type: ADME, organism-based, Canis lupus familiaris; parameters: dose 0.2 mg/kg, route intravenous; settings: in vivo
[3] = Aqueous solubility at pH 2; assay type: physicochemical
[4] = AUC in ovariectomized Sprague-Dawley rat at 1 mg/kg, sc; settings: female, plasma
in vivo [5] = settings: male, Sprague-Dawley, rat, plasma, sc, 3 mg/kg
in vivo [6] = settings: female, Sprague-Dawley, rat, plasma, sc, 3 mg/kg
[7] = Oral bioavailability in Beagle dog at 1 mg/kg; assay type: ADME, organism-based, Canis lupus familiaris; settings: in vivo
[8] = AUC in ovariectomized Sprague-Dawley rat at 10 mg/kg, sc; assay type: ADME, organism-based; parameters: dose 10 mg/kg, route subcutaneous; settings: female, plasma
[9] = AUC in orchidectomized Sprague-Dawley rat at 10 mg/kg, sc; assay type: ADME, organism-based; parameters: dose 10 mg/kg, route subcutaneous; settings: male, plasma
[10] = AUC in orchidectomized Sprague-Dawley rat at 30 mg/kg, sc; assay type: ADME, organism-based; parameters: dose 30 mg/kg, route subcutaneous; settings: male, plasma

Structure (SMILES) | clearance [1] [mL/min/kg] | half-life [2] [min] | further results
COc1ncc(/C=C2\C[C@H]3[C@@H]4CC[C@H]5N(C)C(=O)C=C[C@]5(C)[C@H]4CC[C@]3(C)[C@H]2O)cn1 | 4.6 | 762 | 
Cc1ncc(/C=C2\C[C@H]3[C@@H]4CC[C@H]5N(C)C(=O)C=C[C@]5(C)[C@H]4CC[C@]3(C)[C@H]2O)cn1 | 1.5 | 1120 | solubility [3]: 230 µg/mL (≈ 564 µM); AUC [4]: 17 µM·h
CN1C(=O)C=C[C@]2(C)[C@H]3CC[C@]4(C)[C@@H](O)/C(=C/c5cc(F)cc(F)c5)C[C@H]4[C@@H]3CC[C@@H]12 | 6.8 | 546 | 
CN1C(=O)C=C[C@]2(C)[C@H]3CC[C@]4(C)[C@@H](O)CC[C@H]4[C@@H]3CC[C@@H]12 | 32.3 | 42 | 
C[C@@H]1C[C@H]2[C@@H]3CC[C@H]4N(C)C(=O)C=C[C@]4(C)[C@H]3CC[C@]2(C)[C@H]1O | 20.2 | 60 | 
C[C@]12CCC(=O)C[C@@H]1CC[C@@H]1[C@@H]2CC[C@]2(C)[C@@H](O)CC[C@@H]12 [STANOLONE] |  |  | AUC (in vivo [5]): 0.08 µM·h; AUC (in vivo [6]): 0.02 µM·h
COC[C@@H]1C[C@H]2[C@@H]3CC[C@H]4N(C)C(=O)C=C[C@]4(C)[C@H]3CC[C@]2(C)[C@H]1O | 11 | 90 | 
C/C=C1\C[C@H]2[C@@H]3CC[C@H]4N(C)C(=O)C=C[C@]4(C)[C@H]3CC[C@]2(C)[C@H]1O | 42.8 | 60 | 
CN1C(=O)C=C[C@]2(C)[C@H]3CC[C@]4(C)[C@@H](O)/C(=C/c5cccc(F)c5)C[C@H]4[C@@H]3CC[C@@H]12 | 15.2 | 294 | 
CN1C(=O)C=C[C@]2(C)[C@H]3CC[C@]4(C)[C@@H](O)/C(=C/c5cccnc5)C[C@H]4[C@@H]3CC[C@@H]12 | 5 | 1030 | bioavailability [7]: 21%
CN1C(=O)C=C[C@]2(C)[C@H]3CC[C@]4(C)[C@@H](O)[C@H](Cc5cccc(F)c5)C[C@H]4[C@@H]3CC[C@@H]12 | 22 | 180 | 
CN1C(=O)C=C[C@]2(C)[C@H]3CC[C@]4(C)[C@@H](O)/C(=C/c5cncnc5)C[C@H]4[C@@H]3CC[C@@H]12 | 15.3 | 138 | AUC [8]: 17 µM·h; AUC [9]: 4.3 µM·h; bioavailability [7]: 51%; AUC [10]: 16.2 µM·h; solubility [3]: 570 µg/mL (≈ 1450 µM)
CNc1ncc(/C=C2\C[C@H]3[C@@H]4CC[C@H]5N(C)C(=O)C=C[C@]5(C)[C@H]4CC[C@]3(C)[C@H]2O)cn1 | 0.8 | 654 | 
